Tests used:
Assay type in all cases: in vivo
[1] = test system: Amaranthus retroflexus (AMARE); test: Post-emergence herbicidal activity, spray at 100 ppm; details: % visual injury compared to treatment control 7 days after treatment
Experimental: (§1) Selected compounds of the invention were screened at 100 ppm concentration against Amaranthus retroflexus (AMARE), Setaria italica (SETIT), and Kochia/Bassia scoparia (KCHSC).
(§2) Accordingly, PPO susceptible weed seeds were sown in 5″×5″ pots by quadrant containing Miracle-Gro potting mix (Scotts Miracle-Gro Company, Marysville, OH, USA) and grown in a Conviron growth chamber with appropriate growth conditions (temperature of 26/22° C. with photoperiod 16/8 h light day/night and light intensity of 300 μmol m^−2 s^−1 supplemented by LED lamps). Relative humidity in the growth chamber was maintained at around 65%. Plants were grown until 2-4 leaf stage and thinned to 5-8 plants per quadrant per species.
(§3) Compounds were formulated in 25% Acetone, 1% Crop oil concentrate (COC-Agridex), 0.1% Tween-20, and 2.5% Ammonium sulphate (AMS). Three replicate pots were treated with each compound. Treatment consisting of the above formulation excluding active compound was applied as a treatment control (TC). Plants were treated with the test compound solution in a laboratory spray chamber fitted with 8003 flat fan nozzles calibrated to deliver 187-200 L ha^−1 at 269 kPa. Plants were placed back in the growth chamber and evaluated for % visual injury compared to TC 7 days after treatment (DAT). The data presented in Table 3 in which A represents a percentage control, where 100% control indicates complete inhibition of weed growth.

[2] = test system: Kochia/Bassia scoparia (KCHSC); test: as above; details: % visual injury compared to treatment control 7 days after treatment
Experimental: as §1, §2, §3

Setaria italica (SETIT) = test: as above; details: % visual injury compared to treatment control 7 days after treatment
Experimental: as §1, §2, §3

[3] = test system: Setaria Italica (Foxtail millet); test: Leaf penetration and translocation with and without crop oil concentrate adjuvant (COC); details: for Phloem mobility COC / Xylem mobility COC / Phloem mobility No-COC / Xylem mobility No-COC: 1.5 mM, 3×2 μL droplets on leaf, seven days after treatment; for Phloem mobility COC / Xylem mobility COC: with 1% v/v COC; for Phloem mobility No-COC / Xylem mobility No-COC: without COC; for leaf translocation: compared to compounds 920-4 and 920-6
Experimental: Selected compounds of the invention, along with compounds 920-4 and 920-6 from Japanese Patent Application No. 06321920, were tested for leaf penetration, translocation, and herbicidal activity in a grass weed species when applied with or without an adjuvant to increase the compound cuticle penetration.
Four to five PPO susceptible Setarialtalica (Foxtail millet) seed (Ernst Conservation Seeds, Meadville, PA) were sown in each of the 1.5×1.5-inch 6 cell plug inserts containing Miracle-Gro™ potting mix (Scotts Miracle-Gro Company, Marysville, OH, USA) and grown in a Conviron growth chamber with appropriate growth conditions (temperature of 26/22° C. with photoperiod 16/8 h light day/night and light intensity of 300 μmol m^−2 s^−1 supplemented by LED lamps). Relative humidity in the growth chamber was maintained at around 65%. Plants were grown until 1-2 leaf stage (one expanded leaf and one emerging leaf) and thinned to single plant per cell.
Test compounds were formulated to a final concentration of 1.5 mM in 25% Acetone, 0.1% Tween-20 and 2.5% Ammonium sulphate (AMS) with or without the addition of 1% v/v Crop oil concentrate (COC, Agridex). A total of 6 μL was applied as 3×2 μL droplets on the adaxial surface of an emerged Setaria Italica leaf for each of the two compound solutions (with and without COC). Six replicate plants were treated with each compound. Treatment consisting of the above formulation excluding active compound was applied as a treatment control (TC). Plants were placed back in the growth chamber and, seven days after treatment, were evaluated for overall % visual injury compared to TC. Plants were also evaluated for rapid necrosis representative of PPO inhibition at the site of, acropetal to, and basipetal to the droplet application site to estimate the general, xylem, and phloem compound mobility, respectively. In general, compounds with necrosis only at the site of action were considered to be poorly mobile whereas necrosis in the emerging leaf indicates symplastic phloem movement and necrosis from leaf base to tip only on the applied leaf indicates apoplastic xylem movement.
The data are presented in Table 4 are relative to the TC treatment for which the plant and leaf injury percent is consider 0%. “A” represents a percentage leaf or plant injury between 80 and 100%; “B” represents a percentage leaf or plant injury of 20-80%; “C” represents a percentage control below 20%.

[4] = test system: Amaranthus retroflexus (AMARE), Setaria italica (SETIT), and Kochia/Bassia scoparia (KCHSC); test: Post-emergence herbicidal activity against weed species, overall statement; details: concentration of 100 parts per million (PPM)
Experimental: as §1, §2, §3

SMILES | Post-emergence % control (100 PPM) AMARE [1] | Post-emergence % control (100 PPM) KCHSC [2] | Post-emergence % control (100 PPM) SETIT (Setaria italica (SETIT)) | Phloem mobility COC [3] | Xylem mobility COC [3] | Phloem mobility No-COC [3] | Xylem mobility No-COC [3] | leaf translocation [3] | herbicidal activity against weed species [4]
C#CCN1C(=O)C(F)(F)Oc2cc(F)c(-c3c(F)c(F)c(F)c(F)c3F)cc21 [Compound 2, 2,2,7-trifluoro-6-(perfluorophenyl)-4-(prop-2-yn-1-yl)-2H-benzo[b][1,4]oxazin-3(4H)-one] | 98% | 75% | 58% | A (“A” represents a percentage leaf or plant injury between 80 and 100%) | A (“A” represents a percentage leaf or plant injury between 80 and 100%) | A (“A” represents a percentage leaf or plant injury between 80 and 100%) | A (“A” represents a percentage leaf or plant injury between 80 and 100%) | significant improved leaf translocation | excellent herbicidal activity
C#CCN1C(=O)C(F)(F)Oc2cc(F)c(-c3c(F)cc(F)c(F)c3F)cc21 [Compound 37, 2,2,7-trifluoro-4-(prop-2-yn-1-yl)-6-(2,3,4,6-tetrafluorophenyl)-2H-benzo[b][1,4]oxazin-3(4H)-one] | 100% | 92% | 58% | A (“A” represents a percentage leaf or plant injury between 80 and 100%) | A (“A” represents a percentage leaf or plant injury between 80 and 100%) | A (“A” represents a percentage leaf or plant injury between 80 and 100%) | A (“A” represents a percentage leaf or plant injury between 80 and 100%) | significant improved leaf translocation | excellent herbicidal activity
C#CCN1C(=O)COc2cc(F)c(-c3c(F)cc(F)c(F)c3F)cc21 [Compound 52, 7-fluoro-4-(prop-2-yn-1-yl)-6-(2,3,4,6-tetrafluorophenyl)-2H-benzo[b][1,4]oxazin-3(4H)-one] | 100% | 93% | 72% | A (“A” represents a percentage leaf or plant injury between 80 and 100%) | A (“A” represents a percentage leaf or plant injury between 80 and 100%) | A (“A” represents a percentage leaf or plant injury between 80 and 100%) | A (“A” represents a percentage leaf or plant injury between 80 and 100%) | significant improved leaf translocation | excellent herbicidal activity
C#CCN1C(=O)COc2cc(F)c(-c3c(Cl)cc(C(F)(F)F)cc3Cl)cc21 [Compound 920-4, reference compound] | 89% | 52% | 38% | A (“A” represents a percentage leaf or plant injury between 80 and 100%) | A (“A” represents a percentage leaf or plant injury between 80 and 100%) | C (“C” represents a percentage control below 20%) | C (“C” represents a percentage control below 20%) | – | –
C#CCN1C(=O)COc2cc(F)c(-c3ccc(Cl)c(Cl)c3Cl)cc21 [Compound 920-6, reference compound] | 85% | 21% | 18% | A (“A” represents a percentage leaf or plant injury between 80 and 100%) | A (“A” represents a percentage leaf or plant injury between 80 and 100%) | C (“C” represents a percentage control below 20%) | C (“C” represents a percentage control below 20%) | – | –
